Assay results: US11731982B2, “Biotin derivatives” (LIFE TECHNOLOGIES CORPORATION, priority 2010, dated 2023)

Experiments:
streptavidin = biological target: T1, streptavidin (Streptomyces avidinii, UniProt P22629); experiment: Kinetic measurement of rate constants, label-free ForteBio system, N3′-ethyl biotin immobilized on sensor tips; format: binding
T1 construct: purchased ForteBio
Experimental: The binding constant and on-and-off rate constant of N3′-ethyl biotin with streptavidin were tested using a label-free ForteBio system. The N3′-ethyl biotin 117 was covalently immobilized to amine reactive sensor tips from ForteBio. To generate the association curve, the N3′-ethyl biotin labeled biosensor tips were incubated with streptavidin at 25° C. The dissociation curve was determined by incubating the streptavidin bound sensor tips in PBS buffer described above, as well as in PBS buffer containing 2 mM biotin at 25° C. […] The dissociation constant kD of N3′-ethyl biotin is about 0.8 nM.
The details of fluorescent capture and release assay were follows. All interaction analyses were conducted at 25° C. in kinetic buffer (PBS, 0.1% BSA, 0.05% Tween-20, pH 7.2). The amine reactive biosensor tips from ForteBio were prewet for 20 min in water prior to use. The prepared samples and buffers were added to a 96-well microplate at 200 μL per well according the following sample layout, and the entire 96-well plate was agitated at 1000 rpm. Eight biosensor tips were performed the kinetic assay in parallel. Each amine reactive biosensor tip was equilibrated in MES buffer for 5 min, then activated with EDC/NHS for 5 min. The activated biosensor tip was labeled with 2 mM N3′-ethyl biotin 117 for 10 min, then quenched with 1 M ethanolamine for 5 min. The N3′-ethyl biotin 117 immobilized biosensor tip was incubated in kinetic buffer for 5 min to generate baseline, then incubated with 2 μg/mL streptavidin in kinetic buffer or kinetic buffer (control) at 1000 rpm for 10 min to generate association curve, followed by incubation with kinetic buffer or 2 mM biotin in kinetic buffer at 1000 rpm for 10 min to generate dissociation curve. The ForteBio Data Analysis Octet software was used to process the curve by subtracting sample curve from reference curve, and the kinetic data was calculated by fitting curve.

[1] = Isolation of azido sugar containing glycoproteins from Jurkat cell lysate by click labeling and streptavidin agarose; settings: elution 1% SDS in H2O at 95° C. for 5 min
Experimental: In order to isolate azido sugar containing glycoproteins from cell mixture, the Jurkat cells were cultured in Ac4GlcNAz supplemented media for 24 h. In this culturing, Jurkat cells were cultured in 100 mL RPMI 1640 media supplemented with 10% FBS at two T175 tissue culture flasks. When cell density reached ˜10×10^6 cells/mL, 100 μL of Ac4GlcNAz (100 mM in DMSO) and DMSO (control) were added, respectively. The flasks were incubated at 37° C. humidified incubator with 5% CO2 for 24 h. After incubation, the Jurkat cells were collected by centrifugation at 600×g for 5 min, and washed with PBS five times. The cell pellet was suspended in PBS to adjust the cell density at 50×10^6 cells/mL, and transferred 1 mL each to 1.5 mL tube. The cells were collected again by centrifugation at 600×g for 5 min. Then, 1 mL of 0.5% SDS/PBS was added to each tube, and lysated by sonication. The cell lysate was prepared at ˜3 mg/mL in 0.5% SDS/PBS.
Cell lysate was incubated with N3′-ethyl biotin alkyne 118 or biotin alkyne in the presence of CuSO4, THPTA, and sodium ascorbate at room temperature as described below. N3′-Ethyl biotin alkyne 118 and biotin alkyne (Invitrogen) were used to perform parallel protein enrichment experiments. Biotin alkyne has the structure: […]

[2] = biological target: T2, M-280 Streptavidin Dynabeads (streptavidin) (Streptomyces avidinii, UniProt P22629); experiment: Fluorescent capture and release assay on M-280 Streptavidin Dynabeads; format: binding
T2 construct: purchased Invitrogen
Experimental: In order to evaluate the binding affinity and reversibility of N3′-ethyl biotin with streptavidin, a simple fluorescent binding and release assay was designed. Briefly, N3′-ethyl biotin-AF488 conjugate 117 was incubated with M-280 Streptavidin Dynabeads in pH 7.4 PBS buffer. After 25 min incubation at room temperature, the magnetic beads were separated from the supernatant, which was used to measure the capture efficiency, by measuring the fluorescent intensity of the supernatant solution to determine the amount that was not captured. Then, the N3′-ethyl biotin 117 bound magnetic beads were washed with PBS buffer to remove weak or non-specific binding. The reversibility was tested by incubating the N3′-ethyl biotin 117 bound magnetic beads with 2 mM biotin in PBS buffer at room temperature for 5 min, then the magnetic beads were concentrated by a magnet, and the fluorescent intensity in the solution was measured to determine the amount that was released. As a control, biocytin-AF488 conjugate was also tested in the same assay format.
The details of fluorescent capture and release assay were as follows. 100 μL of M280 Streptavidin Dynabeads (10 mg/mL, Invitrogen) was transferred to a 1.5 mL centrifuge tube, and washed with 500 μL PBS three times. […]

T1 sequence (P22629 25-183): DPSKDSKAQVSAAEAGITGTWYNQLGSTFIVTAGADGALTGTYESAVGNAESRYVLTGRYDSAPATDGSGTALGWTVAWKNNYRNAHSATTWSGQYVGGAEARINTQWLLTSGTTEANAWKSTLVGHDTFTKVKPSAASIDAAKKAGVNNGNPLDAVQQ
T2 sequence (P22629 25-183): as above

## CCN1C(=O)N[C@H]2CS[C@@H](CCCCC(=O)O)[C@H]21 [N3′-ethyl biotin]
streptavidin; 1 mM bis-biotin
  off-rate koff in the presence of 1 mM bis-biotin competing reagent: ~5.8×10^−2 S^−1
streptavidin; 25° C.
  on-rate kon with streptavidin: ~1.5×10^5 M^−1S^−1
streptavidin; 25° C., 2 mM biotin
  off-rate koff in the presence of 2 mM biotin: ~5.8×10^−2 S^−1
streptavidin; 25° C., read-out: dissociation constant kD
  Kd: ~0.8 nM

## Biotin
streptavidin; in the presence of 1 mM bis-biotin competing reagent
  reversibility of streptavidin binding: almost irreversible

## C#CCNC(=O)CCOCCOCCOCCOCCNC(=O)CCCC[C@@H]1SC[C@@H]2NC(=O)N[C@@H]21 [biotin alkyne]
[1]
  quality of isolated proteins: contaminated with streptavidin

## N[C@@H](CCCCNC(=O)CCCC[C@@H]1SC[C@@H]2NC(=O)N[C@@H]21)C(=O)O [Biocytin]
[2]; 0.2 μM in PBS pH 7.4, 25 min room temperature
  Capture efficiency: 96 ± 2%
[2]; 2 mM biotin in PBS, room temperature 5 min
  Release efficiency: <5%
